Experimental data taken from patent US20250171484A1, “METHOD FOR PRODUCING DISACCHARIDE USING BETA-GLUCOSIDASE AND COFACTOR THEREOF AND COMPOSITION FOR INDUCING ENZYME PRODUCTION OF STRAIN OF GENUS TRICHODERMA COMPRISING PRODUCED DISACCHARIDE” (CJ CheilJedang Corporation, priority 2021, published 2025).

System: β-glucosidase (SEQ ID NO: 1)
Assay: Disaccharide production from glucose by beta-glucosidase with added divalent metal ion
Assay type: biochemical, Trichoderma reesei
Settings: for Concentration (g/L) Cellobiose / Concentration (g/L) Gentiobiose / Concentration (g/L) Isomaltose / Concentration (g/L) Maltose / Concentration (g/L) Sophorose / Concentration (g/L) Trehalose / Concentration (g/L) Total: 1 mM ion, 60° C.; for Concentration (g/L) Total: total equals gentiobiose + sophorose; for Increase/decrease rate (%) Gentiobiose / Increase/decrease rate (%) Sophorose / Increase/decrease rate (%) Total: versus no ion added
Experimental: Glucose powder with a purity of 95% or more (hydrous crystalline glucose, Daejung Chemicals & Metals) was dissolved using steam to prepare 40 kg of a glucose solution with a concentration of 71% w/w. 0.3 kg of β-glucosidase (SEQ ID NO: 1) was added at a concentration of 1,650 U/ml to the prepared glucose solution, allowed to stand at 60° C. for 7 days to 21 days to prepare a composition comprising disaccharides (Treated Glucose Syrup, TGS). 0.3 kg of β-glucosidase (same as in Example 1) was added to the glucose solution of Example 1 at a concentration of 1,650 U/ml, and 1 mM of divalent ions [manganese ion (Mn^2+), magnesium ion (Mg^2+), zinc ion (Zn^2+), and copper ion (Cu^2+) each] was further added thereto, and allowed to stand at 60° C. for 7 days to 21 days to prepare a composition containing disaccharides. In the compositions prepared in Examples 1 and 2, the production concentration (g/L) and increase/decrease rate (%) of the disaccharides, i.e. trehalose, isomaltose, maltose, cellobiose, gentiobiose, and sophorose were measured, and the results are shown in Table 1 and Table 2 below. The production concentration was analyzed using a Bio-LC system (Dionex ICS-3000, Sunnyvale, CA, United States) equipped with an electrochemical detector and a CarboPac PAI column.

[Cu+2] [Cu^2+, copper ion (Cu^2+)]
Concentration (g/L) Cellobiose (standing period 7 days): 15.1 g/L
Concentration (g/L) Gentiobiose (standing period 7 days): 71.7 g/L
Concentration (g/L) Isomaltose (standing period 7 days): 8 g/L
Concentration (g/L) Maltose (standing period 7 days): 18.7 g/L
Concentration (g/L) Sophorose (standing period 7 days): 13.3 g/L
Concentration (g/L) Trehalose (standing period 7 days): 19.4 g/L
Concentration (g/L) Total (standing period 7 days): 85 g/L
Increase/decrease rate (%) Gentiobiose (standing period 7 days): 22.8%
Increase/decrease rate (%) Sophorose (standing period 7 days): 92.2%
Increase/decrease rate (%) Total (standing period 7 days): 30.1%
Concentration (g/L) Cellobiose (standing period 14 days): 15.2 g/L
Concentration (g/L) Gentiobiose (standing period 14 days): 82.1 g/L
Concentration (g/L) Isomaltose (standing period 14 days): 10.3 g/L
Concentration (g/L) Maltose (standing period 14 days): 15.9 g/L
Concentration (g/L) Sophorose (standing period 14 days): 17 g/L
Concentration (g/L) Trehalose (standing period 14 days): 12.6 g/L
Concentration (g/L) Total (standing period 14 days): 99.1 g/L
Increase/decrease rate (%) Gentiobiose (standing period 14 days): 16.3%
Increase/decrease rate (%) Sophorose (standing period 14 days): 33.5%
Increase/decrease rate (%) Total (standing period 14 days): 18.9%
Concentration (g/L) Cellobiose (standing period 21 days): 15.5 g/L
Concentration (g/L) Gentiobiose (standing period 21 days): 92.4 g/L
Concentration (g/L) Isomaltose (standing period 21 days): 12.4 g/L
Concentration (g/L) Maltose (standing period 21 days): 16.8 g/L
Concentration (g/L) Sophorose (standing period 21 days): 24.3 g/L
Concentration (g/L) Trehalose (standing period 21 days): 13 g/L
Concentration (g/L) Total (standing period 21 days): 116.7 g/L
Increase/decrease rate (%) Gentiobiose (standing period 21 days): 11.7%
Increase/decrease rate (%) Sophorose (standing period 21 days): 53.0%
Increase/decrease rate (%) Total (standing period 21 days): 18.4%

[Mg+2] [Mg^2+, magnesium ion (Mg^2+)]
Concentration (g/L) Cellobiose (standing period 7 days): 13.1 g/L
Concentration (g/L) Gentiobiose (standing period 7 days): 64.3 g/L
Concentration (g/L) Isomaltose (standing period 7 days): 6.7 g/L
Concentration (g/L) Maltose (standing period 7 days): 13.7 g/L
Concentration (g/L) Sophorose (standing period 7 days): 10.8 g/L
Concentration (g/L) Trehalose (standing period 7 days): 21.1 g/L
Concentration (g/L) Total (standing period 7 days): 75.1 g/L
Increase/decrease rate (%) Gentiobiose (standing period 7 days): 10%
Increase/decrease rate (%) Sophorose (standing period 7 days): 56.8%
Increase/decrease rate (%) Total (standing period 7 days): 15%
Concentration (g/L) Cellobiose (standing period 14 days): 15.6 g/L
Concentration (g/L) Gentiobiose (standing period 14 days): 69.4 g/L
Concentration (g/L) Isomaltose (standing period 14 days): 10.6 g/L
Concentration (g/L) Maltose (standing period 14 days): 14.6 g/L
Concentration (g/L) Sophorose (standing period 14 days): 17.4 g/L
Concentration (g/L) Trehalose (standing period 14 days): 15.3 g/L
Concentration (g/L) Total (standing period 14 days): 86.8 g/L
Increase/decrease rate (%) Gentiobiose (standing period 14 days): −1.6%
Increase/decrease rate (%) Sophorose (standing period 14 days): 36.5%
Increase/decrease rate (%) Total (standing period 14 days): 4.2%
Concentration (g/L) Cellobiose (standing period 21 days): 15.4 g/L
Concentration (g/L) Gentiobiose (standing period 21 days): 74.6 g/L
Concentration (g/L) Isomaltose (standing period 21 days): 13.2 g/L
Concentration (g/L) Maltose (standing period 21 days): 15.4 g/L
Concentration (g/L) Sophorose (standing period 21 days): 23.1 g/L
Concentration (g/L) Trehalose (standing period 21 days): 14.8 g/L
Concentration (g/L) Total (standing period 21 days): 97.7 g/L
Increase/decrease rate (%) Gentiobiose (standing period 21 days): −9.8%
Increase/decrease rate (%) Sophorose (standing period 21 days): 45.3%
Increase/decrease rate (%) Total (standing period 21 days): −0.9%

[Mn+2] [Mn^2+, manganese ion (Mn^2+)]
Concentration (g/L) Cellobiose (standing period 7 days): 14.5 g/L
Concentration (g/L) Gentiobiose (standing period 7 days): 69.5 g/L
Concentration (g/L) Isomaltose (standing period 7 days): 8.6 g/L
Concentration (g/L) Maltose (standing period 7 days): 16.8 g/L
Concentration (g/L) Sophorose (standing period 7 days): 11.6 g/L
Concentration (g/L) Trehalose (standing period 7 days): 21.7 g/L
Concentration (g/L) Total (standing period 7 days): 81.1 g/L
Increase/decrease rate (%) Gentiobiose (standing period 7 days): 18.9%
Increase/decrease rate (%) Sophorose (standing period 7 days): 67.8%
Increase/decrease rate (%) Total (standing period 7 days): 24.1%
Concentration (g/L) Cellobiose (standing period 14 days): 15.4 g/L
Concentration (g/L) Gentiobiose (standing period 14 days): 78 g/L
Concentration (g/L) Isomaltose (standing period 14 days): 12.4 g/L
Concentration (g/L) Maltose (standing period 14 days): 16.1 g/L
Concentration (g/L) Sophorose (standing period 14 days): 16.5 g/L
Concentration (g/L) Trehalose (standing period 14 days): 14.6 g/L
Concentration (g/L) Total (standing period 14 days): 94.5 g/L
Increase/decrease rate (%) Gentiobiose (standing period 14 days): 10.5%
Increase/decrease rate (%) Sophorose (standing period 14 days): 29.2%
Increase/decrease rate (%) Total (standing period 14 days): 13.4%
Concentration (g/L) Cellobiose (standing period 21 days): 15.5 g/L
Concentration (g/L) Gentiobiose (standing period 21 days): 86.5 g/L
Concentration (g/L) Isomaltose (standing period 21 days): 15.7 g/L
Concentration (g/L) Maltose (standing period 21 days): 17.1 g/L
Concentration (g/L) Sophorose (standing period 21 days): 23.6 g/L
Concentration (g/L) Trehalose (standing period 21 days): 14.1 g/L
Concentration (g/L) Total (standing period 21 days): 110.2 g/L
Increase/decrease rate (%) Gentiobiose (standing period 21 days): 4.6%
Increase/decrease rate (%) Sophorose (standing period 21 days): 48.7%
Increase/decrease rate (%) Total (standing period 21 days): 11.7%

[Zn+2] [Zn^2+, zinc ion (Zn^2+)]
Concentration (g/L) Cellobiose (standing period 7 days): 14.8 g/L
Concentration (g/L) Gentiobiose (standing period 7 days): 69.9 g/L
Concentration (g/L) Isomaltose (standing period 7 days): 7.3 g/L
Concentration (g/L) Maltose (standing period 7 days): 15.8 g/L
Concentration (g/L) Sophorose (standing period 7 days): 12.6 g/L
Concentration (g/L) Trehalose (standing period 7 days): 22.2 g/L
Concentration (g/L) Total (standing period 7 days): 82.5 g/L
Increase/decrease rate (%) Gentiobiose (standing period 7 days): 19.7%
Increase/decrease rate (%) Sophorose (standing period 7 days): 82.8%
Increase/decrease rate (%) Total (standing period 7 days): 26.3%
Concentration (g/L) Cellobiose (standing period 14 days): 14.9 g/L
Concentration (g/L) Gentiobiose (standing period 14 days): 81 g/L
Concentration (g/L) Isomaltose (standing period 14 days): 9.8 g/L
Concentration (g/L) Maltose (standing period 14 days): 14.3 g/L
Concentration (g/L) Sophorose (standing period 14 days): 16.4 g/L
Concentration (g/L) Trehalose (standing period 14 days): 14.3 g/L
Concentration (g/L) Total (standing period 14 days): 97.3 g/L
Increase/decrease rate (%) Gentiobiose (standing period 14 days): 14.7%
Increase/decrease rate (%) Sophorose (standing period 14 days): 28.4%
Increase/decrease rate (%) Total (standing period 14 days): 16.8%
Concentration (g/L) Cellobiose (standing period 21 days): 15 g/L
Concentration (g/L) Gentiobiose (standing period 21 days): 92 g/L
Concentration (g/L) Isomaltose (standing period 21 days): 12.5 g/L
Concentration (g/L) Maltose (standing period 21 days): 15.2 g/L
Concentration (g/L) Sophorose (standing period 21 days): 23.4 g/L
Concentration (g/L) Trehalose (standing period 21 days): 14.5 g/L
Concentration (g/L) Total (standing period 21 days): 115.4 g/L
Increase/decrease rate (%) Gentiobiose (standing period 21 days): 11.3%
Increase/decrease rate (%) Sophorose (standing period 21 days): 47.1%
Increase/decrease rate (%) Total (standing period 21 days): 17%
